Laboratory results as given in BindingDB's records for doi:10.1021/np9704922 (University of Naples Federico II, 1998).

Test: Inhibition of human synovial secretory PLA2

SMILES: CC1(C)CCC[C@]2(C)[C@H]3CC[C@@H]4[C@H](O)O[C@@H](C5=CC(=O)OC5O)C[C@H]4[C@]3(C)CC[C@@H]12 (stereo partly specified) [Petrosaspongiolide P]
- IC50: 3.8 µM
